Measured values reported in ChEMBL document CHEMBL1140598, “A review of anti-infective and anti-inflammatory chalcones” (Eur J Med Chem, 2007).
In brackets after ≈: the same amount, converted by molar mass.

Key:
[1] = system: Mycobacterium tuberculosis; experiment: Antibacterial activity against Mycobacterium tuberculosis H37Rv at 12.5 ug/mL; format: functional
[2] = molecular target: Protease (Human immunodeficiency virus 1) (UniProt Q9YQ12); experiment: Inhibition of HIV1 protease at 50 ug/mL
Chain of Protease (Human immunodeficiency virus 1) (Q9YQ12 as listed by the source): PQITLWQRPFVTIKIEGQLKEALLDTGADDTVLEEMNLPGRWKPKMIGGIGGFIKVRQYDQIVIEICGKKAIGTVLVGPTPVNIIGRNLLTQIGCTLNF

[3] = molecular target: Protease (Human immunodeficiency virus 1, UniProt Q9YQ12); experiment: Inhibition of HIV1 protease
Chain of Protease (Q9YQ12 whole entry): as the sequence (Q9YQ12 as listed by the source) above

[4] = system: Candida albicans; experiment: Antifungal activity against Candida albicans; format: functional, organism-based
[5] = system: Cryptococcus neoformans; experiment: Antifungal activity against Cryptococcus neoformans; format: functional, organism-based
[6] = system: Plasmodium falciparum; experiment: Antiplasmodial activity against chloroquine-sensitive Plasmodium falciparum 3D7 by [3H]hypoxanthine incorporation; format: functional, organism-based
[7] = Inhibition of Leishmania donovani solubilized fumarate reductase
[8] = system: Plasmodium falciparum; experiment: Antiplasmodial activity against chloroquine-sensitive Plasmodium falciparum Dd2 by [3H]hypoxanthine incorporation; format: functional, organism-based
[9] = system: Staphylococcus epidermidis; experiment: Antibacterial activity against Staphylococcus epidermidis; format: functional
[10] = system: Staphylococcus aureus; experiment: Antibacterial activity against Staphylococcus aureus; format: functional, organism-based
[11] = system: Staphylococcus haemolyticus; experiment: Antibacterial activity against Staphylococcus haemolyticus; format: functional
[12] = system: Plasmodium falciparum; experiment: Antimalarial activity against chloroquine-resistant Plasmodium falciparum K1 by [3H]hypoxanthine incorporation; format: functional, organism-based
[13] = system: Plasmodium falciparum; experiment: Antimalarial activity against Plasmodium falciparum; format: functional, organism-based
[14] = system: Colletotrichum truncatum; experiment: Antifungal activity against Colletotrichum truncatum CE175; format: functional, Glomerella truncata
[15] = system: Diaporthe longicolla; experiment: Antifungal activity against Phomopsis longicolla Hobbs CE117; format: functional
[16] = system: Leishmania major; experiment: Growth inhibition of Leishmania major promastigotes assessed as [3H]thymidine incorporation; format: functional, organism-based
[17] = system: Leishmania donovani; experiment: Inhibition of Leishmania donovani amastigotes in human monocyte-derived macrophages; format: functional, organism-based
[18] = system: Colletotrichum truncatum; experiment: Antifungal activity against Colletotrichum capsici; format: functional
[19] = system: Staphylococcus aureus; experiment: Antibacterial activity against methicillin-resistant Staphylococcus aureus; format: functional, organism-based
[20] = system: RAW; experiment: Inhibition of nitric oxide production in LPS-stimulated mouse RAW 264.7 cells at 10 uM; format: functional
[21] = system: RAW; experiment: Inhibition of prostaglandin E2 production in LPS-stimulated mouse RAW 264.7 cells at 10 uM; format: functional
[22] = system: Human immunodeficiency virus 1; experiment: Inhibition of HIV1 reverse transcriptase production in human C8166 lymphocytes; format: functional, organism-based; conditions: Human immunodeficiency virus 1, C8166
[23] = system: Plasmodium falciparum; experiment: Antiplasmodial activity against multiresistant Plasmodium falciparum Dd2 by [3H]hypoxanthine incorporation; format: functional, organism-based
[24] = system: Plasmodium falciparum; experiment: Antiplasmodial activity against chloroquine-sensitive Plasmodium falciparum poW by [3H]hypoxanthine incorporation; format: functional, organism-based
[25] = system: Human immunodeficiency virus 1; experiment: Antiviral activity against HIV1 3B assessed as inhibition of p24 antigen production in human PBMCs; format: functional, organism-based; conditions: Human immunodeficiency virus 1, 3B
[26] = system: Human immunodeficiency virus 1; experiment: Inhibition of HIV1 p24 antigen production in human C8166 lymphocytes; format: functional, organism-based; conditions: Human immunodeficiency virus 1, C8166
[27] = system: RAW; experiment: Inhibition of nitric oxide production in LPS-stimulated mouse RAW 264.7 cells; format: functional, cell-based
[28] = system: Trichophyton benhamiae; experiment: Antifungal activity against Trichophyton mentagrophytes; format: functional, Arthroderma benhamiae
[29] = system: Epidermophyton floccosum; experiment: Antifungal activity against Epidermophyton floccosum; format: functional
[30] = system: Microsporum canis; experiment: Antifungal activity against Microsporum canis; format: functional
[31] = system: Trichophyton rubrum; experiment: Antifungal activity against Trichophyton rubrum; format: functional
[32] = system: Microsporum; experiment: Antifungal activity against Microsporum gypseum; format: functional
[33] = system: Fusarium oxysporum; experiment: Antifungal activity against Fusarium oxysporum; format: functional
[34] = system: Rhizoctonia solani; experiment: Antifungal activity against Rhizoctonia solani; format: functional
[35] = system: Plasmodium falciparum; experiment: Inhibition of ring to schizont stage maturation in Plasmodium falciparum NF54 at 10 ug/mL; format: functional
[36] = system: Plasmodium falciparum; experiment: Inhibition of ring to schizont stage maturation in Plasmodium falciparum NF54 at 50 ug/mL; format: functional
[37] = system: Plasmodium falciparum; experiment: Antiplasmodial activity against chloroquine-sensitive Plasmodium falciparum D6; format: functional, organism-based
[38] = system: Plasmodium falciparum; experiment: Antiplasmodial activity against chloroquine-resistant Plasmodium falciparum W2; format: functional, organism-based
[39] = system: Plasmodium falciparum; experiment: Inhibition of ring to schizont stage maturation in Plasmodium falciparum NF54 at 2 ug/mL; format: functional
[40] = system: Leishmania braziliensis; experiment: Growth inhibition of Leishmania braziliensis promastigotes; format: functional, organism-based
[41] = system: Leishmania donovani; experiment: Antileishmanial activity against Leishmania donovani amastigotes in mouse macrophages at 50 ug/mL; format: functional
[42] = system: Leishmania donovani; experiment: Antileishmanial activity against Leishmania donovani promastigotes at 50 ug/mL; format: functional
[43] = system: Trypanosoma cruzi; experiment: Growth inhibition of Trypanosoma cruzi epimastigotes; format: functional, organism-based
[44] = system: Neutrophil; experiment: Inhibition of fMLP/CB-stimulated release of beta-glucuronidase in rat neutrophils; format: functional, cell-based
[45] = system: Neutrophil; experiment: Inhibition of fMLP/CB-stimulated release of lysozyme in rat neutrophils; format: functional, cell-based
[46] = system: Neutrophil; experiment: Superoxide radical scavenging activity in stimulated human neutrophils; format: functional, cell-based
[47] = Superoxide radical scavenging activity by hypoxanthine / xanthine oxidase system; format: functional
[48] = system: Human immunodeficiency virus; experiment: Antiviral activity against HIV; format: functional, organism-based; conditions: Human immunodeficiency virus 1
[49] = system: Enterococcus faecium; experiment: Antibacterial activity against Enterococcus faecium; format: functional
[50] = system: Escherichia coli; experiment: Antibacterial activity against Escherichia coli; format: functional

COc1ccc(C(=O)/C=C/c2ccccc2)c(O)c1
inhibition at 12.5 µg/mL [1]: 78%

COc1cc(O)cc(O)c1C(=O)/C=C/c1ccccc1 [CARDAMOMIN]
inhibition [2]: 75.1%
IC50 [3]: 115 µM

C=C(C)C(O)Cc1c(O)ccc(C(=O)/C=C/c2ccc(O)cc2)c1O (stereo unspecified)
IC50 [4]: 15 µg/mL (≈ 44.1 µM)
IC50 [5]: 7 µg/mL (≈ 20.6 µM)

CCCCOc1ccc(C(=O)/C=C/c2ccc(OC)cc2OC)cc1
IC50 [6]: 8.9 µM
IC50 [7]: 118 µM
IC50 [8]: 14.8 µM

O=C(/C=C/c1ccc(O)cc1)c1ccc(O)cc1O [ISOLIQUIRITIGENIN]
MIC [9]: 250 µg/mL (≈ 976 µM)
MIC [10]: 250 µg/mL
MIC [11]: 250 µg/mL (≈ 976 µM)

CCc1ccc(/C=C/C(=O)c2ccc(OC)cc2OC)cc1
IC50 [12]: 6.5 µM

COc1ccc(C(=O)/C=C/c2ccc(C(F)(F)F)cc2)c(OC)c1OC
IC50 [12]: 6.5 µM

O=C(/C=C/c1cccc(I)c1)c1ccccc1O
inhibition at 12.5 µg/mL [1]: 90%

COc1ccc(/C=C/C(=O)c2ccc(OC)cc2OC)c(OC)c1
IC50 [12]: 6.5 µM

O=C(Nc1ccc(Cl)cc1)Nc1ccc(C(=O)/C=C/c2ccc(F)cc2F)cc1
IC50 [13]: 1.76 µM

C=CC(C)(C)c1cc(/C=C/C(=O)c2ccc(O)cc2)c(OC)cc1Cl
MIC [10]: 10 µg/mL

COc1cc(/C=C/C(=O)c2ccc(NC(=O)Nc3ccc(Cl)cc3)cc2)cc(OC)c1OC
IC50 [13]: 1.76 µM

O=C(/C=C/c1ccccc1)c1ccc(O)cc1O [2',4'-DIHYDROXYCHALCONE]
MIC [14]: 6.25 µg/mL (≈ 26 µM)
MIC [15]: 6.25 µg/mL (≈ 26 µM)

COc1ccc(/C=C/C(=O)c2ccc(O)cc2)c(OC)c1
IC50 [16]: 4 µM
IC50 [17]: 0.65 µM

Cc1ccc(/C=C/C(=O)c2ccc(C)cc2)cc1 [4,4'-DIMETHYLCHALCONE]
MIC [18]: 6.25 µg/mL (≈ 26.4 µM)

CC(C)=CCc1c(O)ccc(C(=O)/C=C/c2ccc(O)cc2)c1O [ISOBAVACHALCONE]
IC50 [4]: 3 µg/mL (≈ 9.25 µM)
IC50 [5]: 7 µg/mL (≈ 21.6 µM)

COc1cc(O)c(C(=O)CCc2ccc(O)cc2)c(O)c1 [ASEBOGENIN]
IC50 [19]: 4.5 µg/mL (≈ 15.6 µM)
IC50 [10]: 10 µg/mL (≈ 34.7 µM)

COc1ccc(/C=C/C(=O)c2ccccc2)c(OC)c1
IC50 [16]: 4 µM
IC50 [17]: 0.65 µM

COc1cc(OC)c(/C=C/C(=O)c2ccccc2C(F)(F)F)c(OC)c1
inhibition at 10 µM [20]: 76.3%
inhibition at 10 µM [21]: 76.3%

O=C(/C=C/c1ccc(O)c(O)c1)c1ccc(O)cc1O
inhibition [2]: 50%

COc1cc(O)c(CC=C(C)C)c(O)c1C(=O)/C=C/c1ccc(O)cc1 [XANTHOHUMOL]
EC50 [22]: 0.5 µg/mL (≈ 1.41 µM)
IC50 [23]: 24 µM
IC50 [24]: 8.2 µM
EC50 [25]: 20.7 µg/mL (≈ 58.5 µM)
EC50 [26]: 1.28 µg/mL (≈ 3.61 µM)

COc1ccc(OC)c(C(=O)/C=C/c2ccc(N(C)C)cc2)c1
IC50 [27]: 0.7 µM

COc1ccc(C(=O)/C=C/c2ccc(Cl)cc2Cl)c(OC)c1OC
IC50 [12]: 6.5 µM

COc1cccc(OC)c1C(=O)/C=C/c1ccc(N(C)C)cc1
IC50 [27]: 0.6 µM

O=C(/C=C/c1cccc(Cl)c1)c1ccccc1O
inhibition at 12.5 µg/mL [1]: 90%

COc1ccc(C(=O)/C=C/c2ccc(F)cc2F)c(OC)c1
IC50 [12]: 6.5 µM

COc1ccc(/C=C/C(=O)c2ccccc2O)c(OC)c1
IC50 [16]: 4 µM
IC50 [17]: 0.65 µM

O=C(Nc1ccc(Cl)cc1)Nc1ccc(C(=O)/C=C/c2ccc(Cl)cc2Cl)cc1
IC50 [13]: 1.76 µM

COc1cccc(/C=C/C(=O)c2ccc(Br)cc2)c1
MIC [28]: 3 µg/mL (≈ 9.46 µM)
MIC [29]: 0.5 µg/mL (≈ 1.58 µM)
MIC [30]: 25 µg/mL (≈ 78.8 µM)
MIC [31]: 3 µg/mL (≈ 9.46 µM)
MIC [32]: 1.5 µg/mL (≈ 4.73 µM)

O=C(/C(Br)=C(\Br)c1cccc([N+](=O)[O-])c1)c1cccc([N+](=O)[O-])c1
MIC [18]: 6.25 µg/mL (≈ 13.7 µM)
MIC [33]: 6.25 µg/mL (≈ 13.7 µM)
MIC [34]: 6.25 µg/mL (≈ 13.7 µM)

COc1cc(/C=C/C(=O)c2ccc(O)c(CC=C(C)C)c2O)ccc1O [CROTAORIXIN]
inhibition at 10 µg/mL [35]: 100%
inhibition at 50 µg/mL [36]: 100%

COc1ccc(C(=O)/C=C/c2ccc(C(F)(F)F)cc2)c(OC)c1
IC50 [12]: 6.5 µM

C=CCOc1ccc(C(=O)/C=C/c2ccc(OC)cc2OC)cc1
IC50 [16]: 4 µM
IC50 [7]: 153 µM
IC50 [17]: 0.65 µM

CC(C)=CCc1cc(/C=C/C(=O)c2ccc(O)cc2O)cc(O)c1O [5'-PRENYLBUTEIN]
IC50 [37]: 10.3 µM
IC50 [38]: 10.3 µM

CC(C)=CCc1cc(C(=O)/C=C/c2ccc(O)cc2)c(O)c(CC=C(C)C)c1O [MEDICAGENIN]
inhibition at 2 µg/mL [39]: 100%

O=C(CCc1ccc(O)cc1)c1c(O)cc(O)cc1O
inhibition [2]: 27%

O=C(/C=C/c1ccccc1)c1ccccc1 [CHALCONE]
IC50 [40]: 13.7 µM

O=C(/C=C/c1ccccc1)c1ccc(Cl)cc1O
inhibition at 12.5 µg/mL [1]: 89%

CC1(C)C=Cc2c(ccc(C(=O)/C=C/c3ccc(O)cc3)c2O)O1
Activity [41]: 74%
Activity [42]: 84%

COc1c(O)ccc(C(=O)/C=C/c2ccccc2)c1O [LARREIN]
MIC [14]: 6.25 µg/mL (≈ 23.1 µM)
MIC [15]: 6.25 µg/mL (≈ 23.1 µM)

O=C(/C=C/c1ccc(Cl)cc1)c1ccccc1 [4-CHLORO CHALCONE]
IC50 [43]: 21.9 µM

O=C(/C=C/c1ccc(Cl)c(Cl)c1)c1ccc(O)cc1
IC50 [12]: 20 µM

O=C(/C=C/c1ccccc1O)c1ccccc1O
IC50 [44]: 1.6 µM
IC50 [45]: 1.4 µM

COc1cc(/C=C/C(=O)c2ccc(O)cc2O)ccc1O [HOMOBUTEIN]
IC50 [37]: 10.3 µM
IC50 [38]: 10.3 µM

COc1ccc(C(=O)/C=C/c2ccc(N(C)C)cc2)cc1OC
IC50 [46]: 0.1 µM
IC50 [47]: 0.3 µM

O=C(/C=C/c1ccc(F)cc1F)c1ccc(O)cc1O
IC50 [12]: 20 µM

CN(C)c1ccc(/C=C/C(=O)c2ccc(O)cc2)cc1
IC50 [12]: 20 µM

COc1c(C)c(O)c(C(=O)/C=C(\O)c2ccccc2)c(O)c1C=O
EC50 [48]: 0.022 µg/mL (≈ 0.067 µM)

Cc1cc(C)cc(-c2ccc(N3CCNCC3)c(/C=C/C(=O)c3cccc(NCCN(C)C)c3)c2)c1
MIC [49]: 5 µM (≈ 2.41 µg/mL)
MIC [19]: 2 µM (≈ 0.965 µg/mL)
MIC [50]: 5 µM (≈ 2.41 µg/mL)
MIC [10]: 2 µM

O=C(/C=C/c1ccccc1)c1ccccc1O [2'-HYDROXYCHALCONE]
inhibition at 12.5 µg/mL [1]: 61%

COc1cc(O)c(C(=O)/C=C/c2ccccc2Cl)c(OC)c1
MIC [31]: 12.5 µg/mL (≈ 39.2 µM)
